We go through two compounds from publication PMC6407592, “Novel Re(I) tricarbonyl coordination compounds based on 2-pyridyl-1,2,3-triazole derivatives bearing a 4-amino-substituted benzenesulfonamide arm: synthesis, crystal structure, computational studies and inhibitory activity against carbonic anhydrase I, II, and IX isoforms†” (Journal of Enzyme Inhibition and Medicinal Chemistry, 2019).

Series [1] addresses hCA IX (Homo sapiens, UniProt Q16790). In words: stopped-flow CO2 hydrase assay, hCA IX.
Experimental: An Applied Photophysics stopped-flow instrument was used for assaying the CA catalysed CO2 hydration activity. […] In particular, CO2 was bubbled in distilled deionised water for 30 min so that the water was saturated (the concentration at a specific temperature is known from literature). In addition, a CO2 assay kit (from Sigma) was used to measure the concentration in variously diluted solutions obtained from the saturated one (which was kept at the same temperature and a constant bubbling during the experiments). […] The uncatalysed rates were determined in the same manner and subtracted from the total observed rates. Stock solutions of inhibitor (0.1 mM) were prepared in distilled-deionised water and dilutions up to 0.01 nM were done thereafter with distilled-deionised water. Inhibitor and enzyme solutions were pre-incubated together for 15 min–2 h (or longer, i.e. 4–6 h) at room temperature (at 4 °C for the incubation periods longer than 15 min) prior to assay, in order to allow for the formation of the E-I complex. The inhibition constants were obtained by non-linear least-squares methods using PRISM 3 and the Cheng-Prusoff equation[25] ^, [26], as reported earlier, and represent the mean from at least three different determinations. hCA I was purchased by Sigma-Aldrich and used without further purification, whereas all the other hCA isoforms were recombinant ones obtained in-house as reported earlier[27] ^, [28].
Series [2] addresses hCA I (Homo sapiens, UniProt P00915). In words: stopped-flow CO2 hydrase assay, hCA I.
Experimental: (§1) An Applied Photophysics stopped-flow instrument was used for assaying the CA catalysed CO2 hydration activity. […] In particular, CO2 was bubbled in distilled deionised water for 30 min so that the water was saturated (the concentration at a specific temperature is known from literature). In addition, a CO2 assay kit (from Sigma) was used to measure the concentration in variously diluted solutions obtained from the saturated one (which was kept at the same temperature and a constant bubbling during the experiments). […] The uncatalysed rates were determined in the same manner and subtracted from the total observed rates. Stock solutions of inhibitor (0.1 mM) were prepared in distilled-deionised water and dilutions up to 0.01 nM were done thereafter with distilled-deionised water. Inhibitor and enzyme solutions were pre-incubated together for 15 min–2 h (or longer, i.e. 4–6 h) at room temperature (at 4 °C for the incubation periods longer than 15 min) prior to assay, in order to allow for the formation of the E-I complex. […]
The target in series [3] is hCA II (Homo sapiens, UniProt P00918). In words: stopped-flow CO2 hydrase assay, hCA II.
Experimental: as §1

pKi: −log10 of the molar value.

hCA I, sequence (P00915 whole entry): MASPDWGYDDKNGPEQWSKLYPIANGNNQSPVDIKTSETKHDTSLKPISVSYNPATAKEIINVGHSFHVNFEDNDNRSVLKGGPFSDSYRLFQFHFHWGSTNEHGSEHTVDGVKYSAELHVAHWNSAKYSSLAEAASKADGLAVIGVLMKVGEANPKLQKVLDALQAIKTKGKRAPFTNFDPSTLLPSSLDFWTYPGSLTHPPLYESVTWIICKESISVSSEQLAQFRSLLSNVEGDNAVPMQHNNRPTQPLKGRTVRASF

Consider `NS(=O)(=O)c1ccc(-n2cc(-c3ccccn3)nn2)cc1` [3a, 4-(4–(2-pyridyl)-1H-1,2,3-triazol-1-yl)-benzenesulfonamide], for which the melting point lay within 244 to 248 °C. In addition, the pKi in series [1] was 8.55. Besides, in series [1] (KI hCA I / KI hCA IX), the “Selectivity ratio I/IX” value is recorded as 64.75. The “Selectivity ratio II/IX” value in series [1] (KI hCA II / KI hCA IX) was 1.46. Besides, the “fold higher affinity than its rhenium complex 4a” value in series [1] (hCA IX, Ki(3a) vs Ki(4a)) stood at 7 fold. Also, the pKi in series [2] is 6.74. The same compound had a pKi in series [3] of 8.39.
For `NS(=O)(=O)c1ccc(Cn2cc(-c3ccccn3)nn2)cc1` [3b, 4–(4-(2-pyridyl)-1H-1,2,3-triazol-1-ylmethyl)-benzenesulfonamide], the melting point is 192 to 195 °C. Further, the pKi in series [2] was 6.52. The compound further showed a pKi in series [3] of 7.25.
